Data as given in patent US20090221520A1, “Polyene Antibiotics, Compositions Containing Said Antibiotics, Method and Micro-Organisms Used to Obtain Same and Applications Thereof” (priority 2005, published 2009).

Tests used:
Human erythrocytes = test: Trials of haemolytic activity (toxicity) on human blood; type: cell-based; conditions: for haemolytic activity as a total percentage of haemolysis: 2.5% human blood, 37° C., 30 minutes, Example 1
Experimental: The trials were conducted according to the method described by Gómez-Gómez et al. (Gómez-Gómez, J. M. et al., 1996, Mol. Microbiol. 19: 909-910). The samples of polyenes were first dried and then dissolved in DMSO at an estimated concentration of 10 to 30 mg/mL. Increasing quantities of the different polyenes were taken to a final volume of 100 μL of DMSO and mixed by means of gentle stirring with 500 μL of PBS buffer (Gómez-Gómez, J. M. et al., 1996, cited earlier), containing 2.5% of human blood, or eventually that of horse. After incubation at 37° C. for 30 minutes without stirring, the cells were sedimented by centrifugation and the degree of haemolysis was assessed by means of measuring the absorption at 545 nm. The values corresponding to the total haemolysis were estimated with a suspension of 2.5% of horse blood in distilled water. The human blood (fundamentally erythrocytes) was obtained from local blood banks (Hospital Ramón y Cajal, Madrid); the horse blood came from Oxoid (defibrinated blood). The amphotericin B and the nystatin were obtained from Sigma (catalogue numbers A-4888 and N-3503, respectively) and the pimaricin came from Calbiochem (527962). All these polyenes were tested directly from commercial samples, without any additional purification
In the above experiments it is clear that the modification of the novel amidated polyenes, produced by the genetic recombinants of Streptomyces diastaticus var. 108 gave rise to compounds with high antifungal activity. […] Human erythrocytes were used as cell models for this study (Cybulska B, et al., 2000, Acta Biochim. Pol. 47: 121-131; Gómez-Gómez, J. M. et al., 1996, Mol. Microbiol. 19: 909-910). The haemolytic activity of the novel compounds was assessed (see the section relating to Experimental Methods) against rimocidin and CE-108; amphotericin B and nystatin A were also included. […] It is worth while highlighting the differences in toxicity observed between CE-108 (IIb) and CE-108B (I-1b) with rimocidin (IIa) and rimocidin B (I-1a); while 50% of haemolysis is achieved with 40 to 60 nanomoles for the last two polyenes, a concentration of CE-108 and is amide 6 or 7 times greater is required in order to achieve the same degree of haemolysis.
The trials were conducted on human blood enriched in eritrocytes, as described previously in Example 1.
In order to measure whether other pharmacological properties of the novel tetraenes were different, haemolytic activity trials were conducted and compared with the parent compounds. Human eritrocytes, were used for these tests. It can be pointed out that although the antifungal activities of rimocidin (IIa) and rimocidin C (IIIa) were similar, their toxicities (measured in terms of haemolytic activity) were 2.5-5 times lower for rimocidin C (IIIa) than for rimocidin (IIa).

[1] = test system: Penicillium chrysogenum, Candida albicans, Aspergillus niger, Candida krusei and Cryptococcus neoformans; test: Antifungal activity trials, paper discs on bioassay plates; type: cell-based; conditions: for antifungal activities compared with the end products rimocidin (IIa) and CE-108 (IIb): measured as in example 1, Example 2; for antifungal activity (in words): paper disc trials, Example 1; for increase of antifungal activity by substitution of the free carboxyl- group for the amide- group: versus parent tetraene, all tested fungi, paper discs 9 mm
Experimental: P. chysogenum, C. krusei, A. niger, C. albicans and C. neoformans, fungi used for testing antifungal activity, were grown in MPDA medium (composition: 2% malt extract, 2% glucose, 0.1% Bactopeptone).
(§1) The antifungal activity of the novel amidated tetraenes [rimocidin B (I-1a) and CE-108B (I-1b)] was tested against various fungi: Penicillium chrysogenum, Candida albicans, Aspergillus niger, Candida krusei and Cryptococcus neoformans. Increasing quantities of the different tetraenes, dissolved in methanol, were applied to paper discs (9 mm in diameter); following the application, the discs were dried and placed on bioassay plates on which the corresponding test fungi had previously been spread. The activity of these amidated tetraenes was compared with that of the molecules from which they derived [[…]], showing that the biological activity of the amidated polyenes was substantially greater than that of the corresponding tetraenes that they derived from (FIG. 2) in all tested fungi. In all cases, the substitution of the free carboxyl- group for the amide- group increased the antifungal activity by approximately fourfold.
The antifungal activity of the novel non-carboxylated tetraenes rimocidin C (IIIa) and CE-108C (IIIb) was measured against Penicillium chrysogenum, Candida albicans, Aspergillus niger, Candida krusei and Cryptococcus neoformans, in comparison with that of the native tetraenes rimocidin (IIa) and CE-108 (IIb).

Penicillium chrysogenum = test: Antifungal activity of pimaricin and AB-400 towards P. chrysogenum; type: cell-based; conditions: for antifungal activity at the tested concentration: P. chrysogenum, a total of 200 ng added in each test
Experimental: RGU5.3. […] RGU5.3 grown in medium with acetate (FIG. 3A) or glucose (FIG. 3B) as source of carbon, respectively. FIG. 3C illustrates the antifungal activity of pimaricin (IVa) and AB-400 (IVb) towards P. chrysogenum; the samples of polyenes applied were (1): commercial pimaricin (Calbiochem […]), (2): total extract of the fermentation culture of S. sp. RGU5.3 grown in glucose medium; (3) purified AB-400 coming from S. sp. RGU5.3 and (4) pimaricin coming from S. sp. RGU5.3; a total of 200 ng. were added in each test.
as §1
The same results were obtained comparing pimaricin (IVa) and its amidated derivative AB-400 (IVb). Both compounds were purified starting from the isolated strain Streptomyces sp. RGU5.3, as indicated in the section on Experimental Methods. […] In this way, using a fermentation culture containing glucose as the source of carbon and not sodium acetate, the pimaricin/AB-400 balance is 70/30; when the same medium is supplemented with sodium acetate, the production profile is reversed, being AB-400 (IVb) the main polyene compound produced (FIG. 3). […]

14-decarboxy-14-methyl-rimocidin [Rimocidin C (IIIa)]
toxicity (measured in terms of haemolytic activity), times lower than for rimocidin (IIa) (Human erythrocytes): 2.5-5 times
antifungal activities compared with the end products rimocidin (IIa) and CE-108 (IIb) [1]: not significantly different

14-decarboxy-methyl-CE-108 [CE-108C (IIIb)]
antifungal activities compared with the end products rimocidin (IIa) and CE-108 (IIb) [1]: not significantly different

C[C@@H]1C\C=C/C=C\C=C/C=C[C@H](O[C@@H]2O[C@H](C)[C@@H](O)[C@H](N)[C@@H]2O)C[C@@H]2O[C@](O)(C[C@@H](O)C[C@H]3O[C@@H]3/C=C\C(=O)O1)C[C@H](O)[C@H]2C(N)=O [AB-400 (IVb), AB-400]
haemolytic activity of AB-400 compared with commercial pimaricin (Human erythrocytes): did not show significant differences
antifungal activity at the tested concentration (Penicillium chrysogenum): highly active
difference in antifungal activity between AB-400 and pimaricin (Penicillium chrysogenum; Penicillium chrysogenum): ~1 order of magnitude
solubility compared with the parent / non-amidated compound (Solubility): increase in their solubility

CCC1C(=O)O[C@H](C)C/C=C/C=C/C=C/C=C/[C@H](OC2OC(C)C(O)C(N)C2O)C[C@@H]2O[C@](O)(CC(O)CCCC(=O)CC1O)C[C@H](O)[C@H]2C(=O)O (stereo partly drawn) [CE-108 (IIb), CE-108]
concentration required to achieve the same degree (50%) of haemolysis, times greater than for rimocidin and rimocidin B (Human erythrocytes): 6 or 7 times
antifungal activity (in words) [1]: low

C[C@@H]1[C@H](O)[C@@H](C)/C=C/C=C/CC/C=C/C=C/C=C/C=C/C(O[C@H]2O[C@H](C)[C@@H](O)[C@H](N)[C@@H]2O)CC2O[C@](O)(CC(O)C(O)CCC(O)CC(O)CC(O)CC(=O)O[C@H]1C)CC(O)C2C(=O)O (stereo partly drawn) [Nystatin A, nystatin A]
haemolytic activity as a total percentage of haemolysis (Human erythrocytes; 20 nanomoles of polyene): 2.20%
haemolytic activity as a total percentage of haemolysis (Human erythrocytes; 40 nanomoles of polyene): 49.53%
haemolytic activity as a total percentage of haemolysis (Human erythrocytes; 60 nanomoles of polyene): 76.80%
haemolytic activity as a total percentage of haemolysis (Human erythrocytes; 80 nanomoles of polyene): 92.79%
haemolytic activity as a total percentage of haemolysis (Human erythrocytes; 100 nanomoles of polyene): 100.00%

CCC[C@@H]1C/C=C/C=C/C=C/C=C/[C@H](O[C@@H]2O[C@H](C)[C@@H](O)[C@H](N)[C@@H]2O)C[C@@H]2O[C@](O)(C[C@@H](O)CCCC(=O)C[C@@H](O)[C@H](CC)C(=O)O1)C[C@H](O)[C@H]2C(=O)O [Rimocidin (IIa), rimocidin]
quantity with which 50% of haemolysis is achieved (Human erythrocytes): 40 to 60 nmol

C[C@@H]1C/C=C/C=C/C=C/C=C/[C@H](O[C@@H]2O[C@H](C)[C@@H](O)[C@H](N)[C@@H]2O)C[C@@H]2O[C@](O)(C[C@@H](O)C[C@H]3O[C@@H]3/C=C/C(=O)O1)C[C@H](O)[C@H]2C(=O)O [pimaricin (IVa), pimaricin]
antifungal activity at the tested concentration (Penicillium chrysogenum): no antifungal activity was observed

CE-108B [CE-108B (I-1b)]
concentration required to achieve the same degree (50%) of haemolysis, times greater than for rimocidin and rimocidin B (Human erythrocytes): 6 or 7 times
haemolytic activity compared with the corresponding tetraene it derived from (Human erythrocytes): not significantly different
haemolytic activity, times lower than that of rimocidin (Human erythrocytes): 6 or 7 times
antifungal activity (in words) [1]: almost as high as that of rimocidin
increase of antifungal activity by substitution of the free carboxyl- group for the amide- group [1]: approximately fourfold

rimocidin B [Rimocidin B (I-1a)]
haemolytic activity compared with the corresponding tetraene it derived from (Human erythrocytes): not significantly different
quantity with which 50% of haemolysis is achieved (Human erythrocytes): 40 to 60 nmol
increase of antifungal activity by substitution of the free carboxyl- group for the amide- group [1]: approximately fourfold
